Experimental data from the CheMixHub ionic liquid set.
± gives the uncertainty stated by the source.

Assay: xn = mol fraction of the nth substance listed
Conditions: 101 kPa

CC[n+]1ccn(C)c1.N#C[S-] + CCCO
viscosity [mPa·s]
Conditions	283.15 K	293.15 K	303.15 K	313.15 K	323.15 K
x1 = 0.0494	3.32 ± 0.07	2.6 ± 0.07	2.07 ± 0.07	1.68 ± 0.07	1.38 ± 0.07
x1 = 0.0994	4.04 ± 0.08	3.12 ± 0.07	2.47 ± 0.07	1.99 ± 0.07	1.63 ± 0.07
x1 = 0.1997	5.49 ± 0.08	4.24 ± 0.08	3.4 ± 0.07	2.63 ± 0.07	2.17 ± 0.07
x1 = 0.3015	7.06 ± 0.09	5.36 ± 0.08	4.21 ± 0.08	3.42 ± 0.07	2.87 ± 0.07
x1 = 0.3996	9.09 ± 0.11	6.89 ± 0.09	5.39 ± 0.08	4.34 ± 0.08	3.58 ± 0.08
x1 = 0.4986	12.1 ± 0.44	9.09 ± 0.11	7.06 ± 0.1	5.65 ± 0.09	4.64 ± 0.08
x1 = 0.5998	15.89 ± 0.46	11.72 ± 0.44	8.97 ± 0.11	7.08 ± 0.1	5.66 ± 0.09
x1 = 0.7008	20.24 ± 0.48	14.76 ± 0.46	10.88 ± 0.13	8.47 ± 0.11	6.81 ± 0.1
x1 = 0.8005	25.11 ± 0.51	17.87 ± 0.47	13.31 ± 0.45	10.27 ± 0.13	8.17 ± 0.11
x1 = 0.9002	30.71 ± 0.56	21.99 ± 0.5	16.11 ± 0.47	12.25 ± 0.45	9.62 ± 0.13
x1 = 0.946	34.98 ± 0.6	24.14 ± 0.52	17.68 ± 0.48	13.52 ± 0.46	10.63 ± 0.14
x1 = 1	38.41 ± 0.64	26.31 ± 0.54	19.03 ± 0.49	14.3 ± 0.46	11.1 ± 0.45
